Several values for one entry are separate records, joined by “and”; a condition that tells them apart may be missing. Equal values may be shown once. Read-outs that look alike come from different tables or passages of the source.
How the values were obtained:
30S-bound IF2 (30S IC) = molecular target: T1, 30S-bound IF2 (30S IC) (Escherichia coli, UniProt P0A705); assay: ppGpp (or GDP) to GTP competitive assay for 30S IC formation by MST; format: binding
T1 construct: 6xHis (N); made in house
Experimental: MST was calculated from the respective fluorescence time dependencies (S3 Fig). […] Symbols as in (B). […] Continuous lines indicate nonlinear regression fittings with quadratic (B and E) or same-site competition (G) functions. Three measurements were performed; mean and standard deviations are plotted (S1 Data).
[…] Symbols are as indicated, 3 measurements were performed, and mean and standard deviation are plotted (S1 Data). Continuous lines show nonlinear regression fittings with a same-site inhibition model. […] (PDF) Click here for additional data file.

IF2-bound 30S IC = molecular target: T2, IF2-bound 30S IC (Escherichia coli, UniProt P0A705); assay: 30S IC formation by MST, guanosine nucleotide titration; format: binding; details: for MST Average / MST Replicates (a.u.): Fig 2B (GDP/ppGpp series);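 as to MST Average: lower thermophoresis signal means Bpy-tRNAi dissociation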;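 as to MST Replicates (a.u.): lower thermophoresis signal means Bpy-tRNAi dissociation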
T2 construct: 6xHis (N); made in house
T2 sequence (P0A705 whole entry, looked up): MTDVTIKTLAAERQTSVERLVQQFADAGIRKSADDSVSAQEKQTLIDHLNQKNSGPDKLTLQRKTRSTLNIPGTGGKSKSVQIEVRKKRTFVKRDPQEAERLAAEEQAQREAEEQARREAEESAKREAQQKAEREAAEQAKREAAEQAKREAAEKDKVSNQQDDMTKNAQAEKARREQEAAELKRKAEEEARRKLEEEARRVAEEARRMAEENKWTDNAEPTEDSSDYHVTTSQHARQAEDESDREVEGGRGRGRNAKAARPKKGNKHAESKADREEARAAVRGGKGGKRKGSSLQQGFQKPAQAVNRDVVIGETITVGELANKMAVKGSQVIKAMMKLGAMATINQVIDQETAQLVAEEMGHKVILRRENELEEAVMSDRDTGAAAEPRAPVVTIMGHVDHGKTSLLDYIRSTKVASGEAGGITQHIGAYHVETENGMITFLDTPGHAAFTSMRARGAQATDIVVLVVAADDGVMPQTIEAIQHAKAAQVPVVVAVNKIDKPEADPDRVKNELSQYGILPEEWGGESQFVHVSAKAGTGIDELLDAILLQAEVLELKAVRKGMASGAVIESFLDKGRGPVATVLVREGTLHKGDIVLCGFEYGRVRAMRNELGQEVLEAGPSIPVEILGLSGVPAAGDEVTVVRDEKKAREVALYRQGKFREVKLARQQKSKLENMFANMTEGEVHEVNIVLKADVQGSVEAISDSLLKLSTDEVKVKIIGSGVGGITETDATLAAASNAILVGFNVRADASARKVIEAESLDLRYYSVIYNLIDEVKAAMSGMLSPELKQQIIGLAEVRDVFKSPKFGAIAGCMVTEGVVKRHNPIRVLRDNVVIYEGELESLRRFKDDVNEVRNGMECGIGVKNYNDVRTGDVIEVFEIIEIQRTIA
In short: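 Binding of fluorescently labelled initiator tRNA (Bpy-tRNAi) to E. coli 30S subunits followed by microscale thermophoresis, titrating guanosine nucleotides at constant 1 μM IF2. Dissociation constants from quadratic nonlinear fits of Ff/Fi versus ligand concentration; three measurements, mean ± SD.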

T1 sequence (P0A705 whole entry, looked up): as above

## Nc1nc2c(ncn2[C@@H]2O[C@H](COP(=O)(O)OP(=O)(O)O)[C@@H](OP(=O)(O)OP(=O)(O)O)[C@H]2O)c(=O)[nH]1 [ppGpp]
30S-bound IF2 (30S IC); mMF1, Log [ppGpp] -0.31
  MST Average: 1023.54 a.u.
30S-bound IF2 (30S IC); mMF1, Log [ppGpp] -0.61
  MST Average: 1029.40 a.u.
30S-bound IF2 (30S IC); mRNA mInfA, read-out: IC50 Average
  IC50: 29 µM
30S-bound IF2 (30S IC); mRNA mInfA, read-out: IC50 Replicates
  IC50: 28.5 µM and 29 µM and 29.5 µM
30S-bound IF2 (30S IC); mRNA mMF1, read-out: IC50 Average
  IC50: 8.64 µM
30S-bound IF2 (30S IC); mRNA mMF1, read-out: IC50 Replicates
  IC50: 8.44 µM and 8.71 µM and 8.75 µM
30S-bound IF2 (30S IC); mRNA mTufA, read-out: IC50 Average
  IC50: 131 µM
30S-bound IF2 (30S IC); mRNA mTufA, read-out: IC50 Replicates
  IC50: 130 µM and 131 µM and 132 µM
30S-bound IF2 (30S IC); mTufA, Log [ppGpp] 0.29
  MST Average: 1135.97 a.u.
30S-bound IF2 (30S IC); mTufA, Log [ppGpp] 0.59
  MST Average: 1126.95 a.u.
30S-bound IF2 (30S IC); mTufA, Log [ppGpp] 0.89
  MST Average: 1118.40 a.u.
30S-bound IF2 (30S IC); mTufA, Log [ppGpp] 1.19
  MST Average: 1113.08 a.u.
  MST Replicates (a.u.): 1112.21 a.u. and 1113.44 a.u. and 1113.60 a.u.
30S-bound IF2 (30S IC); mTufA, Log [ppGpp] 1.49
  MST Average: 1095.20 a.u.
  MST Replicates (a.u.): 1094.85 a.u. and 1094.92 a.u. and 1095.85 a.u.
30S-bound IF2 (30S IC); mTufA, Log [ppGpp] 1.80
  MST Average: 1070.12 a.u.
  MST Replicates (a.u.): 1069.34 a.u. and 1070.42 a.u. and 1070.61 a.u.
30S-bound IF2 (30S IC); mTufA, Log [ppGpp] 2.10
  MST Average: 1051.04 a.u.
  MST Replicates (a.u.): 1050.31 a.u. and 1051.38 a.u. and 1051.44 a.u.
30S-bound IF2 (30S IC); mTufA, Log [ppGpp] 2.40
  MST Average: 1030.04 a.u.
30S-bound IF2 (30S IC); mTufA, Log [ppGpp] 2.70
  MST Average: 1004.77 a.u.
30S-bound IF2 (30S IC); mTufA, Log [ppGpp] -0.01
  MST Average: 1139.93 a.u.
30S-bound IF2 (30S IC); mTufA, Log [ppGpp] -0.31
  MST Average: 1146.28 a.u.
30S-bound IF2 (30S IC); mTufA, Log [ppGpp] -0.61
  MST Average: 1160.80 a.u.
30S-bound IF2 (30S IC); read-out: IC50 of 30S IC formation, mInfA, competition with 50 μM GTP
  IC50: 29 ± 1 µM
30S-bound IF2 (30S IC); read-out: IC50 of 30S IC formation, mMF1, competition with 50 μM GTP
  IC50: 8.6 ± 0.2 µM
30S-bound IF2 (30S IC); read-out: IC50 of 30S IC formation, mTufA with SRs I–III removed (+371)
  IC50: 50 ± 5 µM
30S-bound IF2 (30S IC); read-out: IC50 of 30S IC formation, mTufA, competition with 50 μM GTP
  IC50: 132 ± 1 µM
IF2-bound 30S IC; nucleotide 0.13 µM
  MST Average: 936.81 a.u.
IF2-bound 30S IC; nucleotide 0.13 µM, constant IF2 (1 μM)
  MST Replicates (a.u.): 935.73 a.u. and 937.32 a.u. and 936.20 a.u. and 937.97 a.u.
IF2-bound 30S IC; nucleotide 0.25 µM
  MST Average: 935.17 a.u.
  MST Replicates (a.u.): 933.09 a.u. and 935.35 a.u. and 935.04 a.u. and 937.21 a.u.
IF2-bound 30S IC; nucleotide 0.50 µM
  MST Average: 935.42 a.u.
  MST Replicates (a.u.): 934.19 a.u. and 935.54 a.u. and 934.92 a.u. and 937.01 a.u.
IF2-bound 30S IC; nucleotide 1.00 µM
  MST Average: 934.04 a.u.
  MST Replicates (a.u.): 932.40 a.u. and 934.21 a.u. and 934.12 a.u. and 935.41 a.u.
IF2-bound 30S IC; nucleotide 2.00 µM
  MST Average: 933.55 a.u.
  MST Replicates (a.u.): 931.48 a.u. and 933.31 a.u. and 934.38 a.u. and 935.04 a.u.
IF2-bound 30S IC; nucleotide 4.00 µM
  MST Average: 931.78 a.u.
  MST Replicates (a.u.): 930.04 a.u. and 931.00 a.u. and 932.61 a.u. and 933.45 a.u.
IF2-bound 30S IC; nucleotide 8.00 µM
  MST Average: 932.68 a.u.
  MST Replicates (a.u.): 930.98 a.u. and 932.59 a.u. and 933.05 a.u. and 934.12 a.u.
IF2-bound 30S IC; nucleotide 16.00 µM
  MST Average: 932.30 a.u.
  MST Replicates (a.u.): 931.44 a.u. and 932.29 a.u. and 931.81 a.u. and 933.65 a.u.
IF2-bound 30S IC; nucleotide 31.00 µM
  MST Average: 930.81 a.u.
  MST Replicates (a.u.): 928.79 a.u. and 930.49 a.u. and 930.93 a.u. and 933.04 a.u.
IF2-bound 30S IC; nucleotide 62.00 µM
  MST Average: 932.86 a.u.
  MST Replicates (a.u.): 931.23 a.u. and 932.53 a.u. and 932.57 a.u. and 935.11 a.u.
IF2-bound 30S IC; nucleotide 125.00 µM
  MST Average: 932.91 a.u.
  MST Replicates (a.u.): 931.17 a.u. and 932.39 a.u. and 933.25 a.u. and 934.84 a.u.
IF2-bound 30S IC; constant IF2 (1 μM)
  promotion of Bpy-tRNAi binding (thermophoresis) in guanosine nucleotide titration: failed to promote Bpy-tRNAi binding at any concentration

Reference: article PMC7010297, “How the initiating ribosome copes with ppGpp to translate mRNAs” (PLoS Biology, 2020)
